Entries after “also recorded” stand apart in the source; their conditions may differ.

The subject of one assay is E. coli. Put plainly: Kill or inhibit growth/proliferation; morphology, biofilm and growth disruption (Tables 5, 6). Note: test concentration or dose not given here. In kind it is cell-based, Escherichia coli. Set-up: key: A: Peptide aggregates; B: Less hyphal formation; Clumps; Diffuse clumps and small polyps; F: Diffuse growth; H: Thin; I: Growth inhibition; Microcolony formation; Rippled; Small polyps; Thick; W: Halo formation on top, microlonies on bottom.

Another assay has as its system MRSA. Described as above. In kind it is cell-based, Methicillin-resistant Staphylococcus aureus. Set-up: key: A: Peptide aggregates; B: Less hyphal formation; Clumps; Diffuse clumps and small polyps; F: Diffuse growth; H: Thin; I: Growth inhibition; Microcolony formation; Rippled; Small polyps; Thick; W: Halo formation on top, microlonies on bottom.
The subject of another assay is microorganisms. The assay is described as follows: Peptides having multiple activities (targeting/binding, antimicrobial, growth or phenotype altering). From the text: In certain embodiments, peptides described herein can have multiple activities. Thus for example, a peptide can have both binding/targeting activity and antimicrobial activity. Such peptides can be used, e.g., in a chimeric construct, for any or all of these properties. Thus, for example, a peptide designated “B” in Table 8 can be used as a targeting peptide. If it is also designated G or M it can also be used for antimicrobial activity.

For the next assay, the system named is S. epidermidis. The assay is described as follows: Kill or inhibit growth/proliferation; morphology, biofilm and growth disruption (Tables 5, 6). Note: test concentration or dose not given here. In kind it is cell-based, Staphylococcus epidermidis. Set-up: key: A: Peptide aggregates; B: Less hyphal formation; Clumps; Diffuse clumps and small polyps; F: Diffuse growth; H: Thin; I: Growth inhibition; Microcolony formation; Rippled; Small polyps; Thick; W: Halo formation on top, microlonies on bottom.

Another assay concerns S. pneumoniae. The description is as above. In kind it is cell-based, Streptococcus pneumoniae. The arrangement: key: A: Peptide aggregates; B: Less hyphal formation; Clumps; Diffuse clumps and small polyps; F: Diffuse growth; H: Thin; I: Growth inhibition; Microcolony formation; Rippled; Small polyps; Thick; W: Halo formation on top, microlonies on bottom. Note: test concentration or dose not given here.
Assay [1] has as its system microorganisms (e.g., bacteria, yeasts, fungi). Put plainly: Targeting peptide binding to target microorganisms (Table 3). The settings on record: microorganism(s) the targeting peptide binds, preferably 1x PBS.
The next assay has as its system E. faecalis. Put plainly: Kill or inhibit growth/proliferation; morphology, biofilm and growth disruption (Tables 5, 6). Note: test concentration or dose not given here. In kind it is cell-based, Enterococcus faecalis. The arrangement: key: A: Peptide aggregates; B: Less hyphal formation; Clumps; Diffuse clumps and small polyps; F: Diffuse growth; H: Thin; I: Growth inhibition; Microcolony formation; Rippled; Small polyps; Thick; W: Halo formation on top, microlonies on bottom.

[2] abbreviates: binding in aqueous buffers depending on peptide solubility.
The mark [3] stands for this setting: peptide binding conducted in aqueous buffers varied by peptide solubility.
Throughout, for Organism, effect: test concentration or dose not given here.

On to “PF-178: peptide having multiple activities (EVYSSPTNNVAITVQNN; Peptide with targeting and/or antimicrobial activity)”, for which the “Organism, effect” value is on record as “E. coli (C)” with E. coli, “MRSA (M)” with MRSA, “S. epidermidis (D)” in the assay with S. epidermidis and “S. pneumoniae (D)” in the assay on S. pneumoniae. Besides, in the assay on microorganisms, the Activities result is “G B”.
Turning to “PF-350: peptide having multiple activities (LAVILRAIVY; Peptide with targeting and/or antimicrobial activity)”, the figures for the “Organism, effect” value in the assay on E. coli, with MRSA and in the assay on S. epidermidis were “E. coli (C)”, “MRSA (C)” and “S. epidermidis (C)”, respectively. For the same substance, the “Target(s)” value in assay [1] (setting [2]) is recorded as “S. epidermidis; also recorded: E. coli; also recorded: E. faecalis; also recorded: C. jeikeium; also recorded: C. jejuni”. In addition, the Activities result with microorganisms is reported as “G B”.
The corresponding values for “PF-360: peptide having multiple activities (chain 1 MEQKVKVIFVPRSKPDNQLKTFVSAVLFKA; chain 2 MEQKVKVIFVPRSKPDNQLKTFVSAVLFKA; Peptide with targeting and/or antimicrobial activity)” are “E. coli (C)”, “MRSA (H)”, “S. epidermidis (S)”, “S. epidermidis; also recorded: B. subtilis; also recorded: E. coli; also recorded: P. aeruginosa; also recorded: C. albicans; also recorded: E. faecalis; also recorded: C. jeikeium; also recorded: C. jejuni” and “G B”.
“PF-362: peptide having multiple activities (chain 1 NIERILKEKVWMIRCVE; chain 2 NIERILKEKVWMIRCVE; Peptide with targeting and/or antimicrobial activity)”: the “Organism, effect” value in the assay with E. coli is given as “E. coli (C)”; in the assay on MRSA, “MRSA (C)”. Moreover, the “Target(s)” value in assay [1] (setting [2]) is “S. epidermidis; also recorded: E. coli; also recorded: P. aeruginosa; also recorded: C. albicans; also recorded: E. faecalis; also recorded: C. jejuni”. In addition, the Activities result with microorganisms was “G B”.
Regarding “PF-370: peptide having multiple activities (chain 1 VIFLHKESGNLKEIFY; chain 2 VIFLHKESGNLKEIFY; Peptide with targeting and/or antimicrobial activity)”, the figures for the “Organism, effect” value in the assay with E. coli, in the assay on MRSA and in the assay with S. epidermidis were “E. coli (R)”, “MRSA (C)” and “S. epidermidis (C)”, respectively. Moreover, in assay [1] (setting [2]), the “Target(s)” value is recorded as “S. epidermidis; also recorded: E. coli; also recorded: P. aeruginosa; also recorded: E. faecalis; also recorded: C. jejuni”. Besides, the Activities result in the assay on microorganisms was “G B”.
“PF-383: peptide having multiple activities (chain 1 WSEIEINTKQSN; chain 2 WSEIEINTKQSN; Peptide with targeting and/or antimicrobial activity)”: the “Organism, effect” value with E. coli is on record as “E. coli (R)”; with S. epidermidis, “S. epidermidis (C)”. Also, the “Target(s)” value in assay [1] (setting [2]) is given as “S. epidermidis; also recorded: B. subtilis; also recorded: B. fragilis; also recorded: E. coli; also recorded: C. jejuni”. The Activities entry with microorganisms is “G B”.
For the substance “PF-395: peptide having multiple activities (YCVPLGNMGNMNNKIW; Peptide with targeting and/or antimicrobial activity)”, the figures for the “Organism, effect” value with E. coli, with MRSA and with S. epidermidis were “E. coli (R)”, “MRSA (C)” and “S. epidermidis (C)”, respectively. Further, the “Target(s)” value in assay [1] (setting [3]) is listed as “S. epidermidis; also recorded: E. coli; also recorded: P. aeruginosa; also recorded: S. pneumoniae; also recorded: E. faecalis; also recorded: C. jeikeium; also recorded: C. jejuni”. In the assay with microorganisms, the Activities result is listed as “G B”.
The corresponding values for “PF-403: peptide having multiple activities (LLSTEQLLKYYDGETFDGFQLPSNE; Peptide with targeting and/or antimicrobial activity)” are “E. coli (R)”, “MRSA (M)”, “S. epidermidis (M)”, “E. coli; also recorded: P. aeruginosa; also recorded: S. pneumoniae; also recorded: E. faecalis; also recorded: C. jeikeium; also recorded: C. jejuni” and “G B”.
The corresponding values for “PF-413: peptide having multiple activities (TFAGSIKIGVPDLVHVTFNCKR; Peptide with targeting and/or antimicrobial activity)” are “E. coli (S)”, “MRSA (C)”, “S. epidermidis (C)”, “P. aeruginosa; also recorded: C. albicans; also recorded: C. jejuni” and “G B”.
For the substance “PF-427: peptide having multiple activities (YVLEYHGLRATQDVDAFMAL; Peptide with targeting and/or antimicrobial activity)”, the “Organism, effect” value in the assay on E. coli is reported as “E. coli (C)”; in the assay with MRSA, “MRSA (C)”; with E. faecalis, “E. faecalis (C)”; in the assay on S. pneumoniae, “S. pneumoniae (R)”. Further, the “Target(s)” value in assay [1] (setting [3]) is “M. luteus; also recorded: P. aeruginosa; also recorded: C. albicans; also recorded: C. jejuni”. In addition, the Activities result in the assay with microorganisms is given as “G B”.
Turning to “PF-443: peptide having multiple activities (chain 1 KLLYFFNYFENLQQVHLLVQL; chain 2 KLLYFFNYFENLQQVHLLVQL; Peptide with targeting and/or antimicrobial activity)”, the “Organism, effect” value in the assay on E. coli is given as “E. coli (R)”; in the assay with MRSA, “MRSA (C)”; with S. pneumoniae, “S. pneumoniae (C)”. For the same substance, the Activities entry in the assay with microorganisms is “G B”.
In the case of “PF-453: peptide having multiple activities (chain 1 IIQDIAHAFGY; chain 2 IIQDIAHAFGY; Peptide with targeting and/or antimicrobial activity)”, the “Organism, effect” value was “E. coli (C)” with E. coli, “MRSA (C)” in the assay on MRSA, “S. epidermidis (C)” with S. epidermidis and “S. pneumoniae (C)” in the assay on S. pneumoniae. Also, the “Target(s)” value in assay [1] (setting [3]) is on record as “M. luteus; also recorded: E. coli; also recorded: P. aeruginosa; also recorded: S. pneumoniae; also recorded: E. faecalis; also recorded: C. jeikeium; also recorded: C. jejuni”. The Activities result with microorganisms was “G B”.
With “PF-478: peptide having multiple activities (chain 1 HLFILKSHLKPFPPFRYTYD; chain 2 HLFILKSHLKPFPPFRYTYD; Peptide with targeting and/or antimicrobial activity)”, the “Organism, effect” value is on record as “E. coli (C)” in the assay with E. coli, “MRSA (H)” in the assay with MRSA, “S. epidermidis (C)” with S. epidermidis and “S. pneumoniae (C)” with S. pneumoniae. The Activities result in the assay on microorganisms is “G B”.
Take “PF-532 (KFIYKYKLSFIIYKILIQTLTMELNK; Peptide with targeting and/or antimicrobial activity)”: the “Organism, effect” value in the assay with E. coli is given as “E. coli (C)”; in the assay with MRSA, “MRSA (C)”; in the assay on E. faecalis it was “E. faecalis (C)”; in the assay with S. pneumoniae, “S. pneumoniae (C)”.
Take “PF-540: peptide having multiple activities (chain 1 KSILILIKVIFIGQTTIIL; chain 2 KSILILIKVIFIGQTTIIL; Peptide with targeting and/or antimicrobial activity)”: the “Organism, effect” value is listed as “E. coli (R)” in the assay on E. coli, “MRSA (H)” in the assay on MRSA, “S. epidermidis (H)” in the assay with S. epidermidis and “S. pneumoniae (R)” with S. pneumoniae. Besides, the “Target(s)” value in assay [1] (setting [3]) was “C. albicans”. For the same substance, the Activities result with microorganisms was “G B”.
With “PF-619: peptide having multiple activities (WSRVPGHSDTGWKVWHRW; Peptide with targeting and/or antimicrobial activity)”, the “Organism, effect” value is “E. coli (C)” with E. coli, “MRSA (M)” with MRSA, “S. epidermidis (M)” in the assay on S. epidermidis and “S. pneumoniae (C)” in the assay on S. pneumoniae. In the assay with microorganisms, the Activities entry is listed as “G B”.
